According to PMC3044687, “The C-Terminal Domain of the Arabinosyltransferase Mycobacterium tuberculosis EmbC Is a Lectin-Like Carbohydrate Binding Module” (PLoS Pathogens, 2011):

What was measured:
[1] = molecular target: EmbC^CT (C-terminal domain of M. tuberculosis EmbC, residues 719–1094) (Mycobacterium tuberculosis, UniProt P9WNL5); assay: Solution binding assay by intrinsic tryptophan fluorescence, wild-type EmbC^CT; conditions: wild-type EmbC^CT 20 µM, 50 mM KH2PO4 pH 7.9, 300 mM NaCl; single site saturation fit
Procedure: Intrinsic tryptophan fluorescence (ITF) experiments were carried out using a PTI QuantaMaster 40 spectrofluorimeter, recording data with the FeliX32 software package (PTI, Birmingham, New Jersey, USA). The excitation wavelength was set to 294 nm and the fluorescence emission (Femission) was recorded between 300–400 nm for each ligand aliquot added to a 200 µl solution containing 20 µM EmbC^CT in 50 mM KH2PO4 (pH 7.9), 300 mM NaCl. […] The change in fluorescence emission (ΔFemission) was calculated by subtracting Femission (recorded 2 min after each ligand addition) from Femission^max, and the data was then plotted against ligand concentration, [L] (3 independent experiments). A plot of ΔFemission at λ = 338 nm vs. [L] was fitted to the saturation binding equation using GraphPad Prism software: [drawing 1]

[2] = test system: Araf transferase (isolated mycobacterial membranes); conditions: incubated with [14C]-labelled Araf-donor DPA and isolated mycobacterial membranes; cited from earlier work

EmbC^CT (C-terminal domain of M. tuberculosis EmbC, residues 719–1094), sequence (P9WNL5 719-1094 limits assumed): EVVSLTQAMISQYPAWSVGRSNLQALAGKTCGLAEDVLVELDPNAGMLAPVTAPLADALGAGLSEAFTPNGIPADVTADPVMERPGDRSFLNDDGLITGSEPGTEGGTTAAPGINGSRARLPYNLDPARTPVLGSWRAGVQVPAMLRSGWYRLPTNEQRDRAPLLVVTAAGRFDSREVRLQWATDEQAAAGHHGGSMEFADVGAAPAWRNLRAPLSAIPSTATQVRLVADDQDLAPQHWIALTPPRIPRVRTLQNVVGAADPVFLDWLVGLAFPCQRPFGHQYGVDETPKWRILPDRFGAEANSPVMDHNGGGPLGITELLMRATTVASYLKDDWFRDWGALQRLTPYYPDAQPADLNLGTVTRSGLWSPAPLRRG

SMILES | Fmax [1] | Kd [1] | acceptor activity (in words) [2]
CCCCCCCCO[C@H]1O[C@H](CO[C@H]2O[C@H](CO[C@H]3O[C@H](CO)[C@@H](O)[C@@H]3O)[C@@H](O)[C@@H]2O)[C@@H](O)[C@@H]1O [Ara(1→5)2Ara-O-C8, [α-D-Araf-(1→5)]2-α-D-Araf-O-(CH2)7CH3] | 0.105 | 25.3 µM | –
CCCCCCCCO[C@H]1O[C@H](CO[C@H]2O[C@H](CO[C@H]3O[C@H](CO[C@H]4O[C@H](CO[C@H]5O[C@H](CO)[C@@H](O)[C@@H]5O)[C@@H](O)[C@@H]4O)[C@@H](O)[C@@H]3O)[C@@H](O)[C@@H]2O)[C@@H](O)[C@@H]1O [Ara(1→5)4Ara-O-C8, [α-D-Araf-(1→5)]4-α-D-Araf-O-(CH2)7CH3] | 0.157 | – | –
CO[C@H]1O[C@H](CO[C@H]2O[C@H](CO)[C@@H](O)[C@@H]2O)[C@@H](O)[C@@H]1O [Ara(1→5)Ara-O-C1, α-D-Araf-(1→5)-α-D-Araf-O-CH3] | 0.26 | 11 µM | –
CCCCCCCCO[C@H]1O[C@H](CO[C@H]2O[C@H](CO)[C@@H](O)[C@@H]2O)[C@@H](O)[C@@H]1O [Ara(1→5)Ara-O-C8, α-D-Araf-(1→5)-α-D-Araf-O-(CH2)7CH3] | 0.22 | – | potent acceptor mimics
